The values below come from DBAASP.

As a reminder, the MIC is the least concentration at which growth counts as inhibited.

Assay in all cases: ≥ marks a high value that may be exact or a test limit, other limits are often not marked, values filed in µg/mL are converted to µM
Experiment [1] deals with Candida tropicalis IOC 4560.
Experiment [2] relates to Enterobacter cloacae beta-12.
In experiment [3] the test system is Bacillus megaterium ATCC 10778.
The test system of experiment [4] is Micrococcus luteus A270.
Experiment [5] has as its system Escherichia coli SBS 363.
Experiment [6] relates to Staphylococcus aureus ATCC 29213.
In experiment [7] the test system is Bacillus subtilis ATCC 6633.
Experiment [8] has as its system Candida albicans MDM8.
Experiment [9] deals with Pseudomonas aeruginosa ATCC 27853.
Experiment [10] relates to Serratia marcescens ATCC 4112.
The test system of experiment [11] is Enterococcus faecalis E1478F.
Experiment [12] concerns Bacillus subtilis.
Experiment [13] relates to Staphylococcus aureus RN4220.
For experiment [14], the system named is Staphylococcus aureus.
Experiment [15] relates to Staphylococcus sciuri P254.
Experiment [16] has as its system Enterococcus faecalis ATCC 29212.
Experiment [17] has as its system Pseudomonas aeruginosa PAO1.
For experiment [18], the system named is Escherichia coli K88.
The test system of experiment [19] is Escherichia coli K99.
For experiment [20], the system named is Staphylococcus aureus ATCC 25923.
The test system of experiment [21] is Staphylococcus epidermidis ATCC 12228.
Experiment [22] has as its system Staphylococcus aureus ATCC 43300.
The test system of experiment [23] is Escherichia coli UB1005.
For experiment [24], the system named is Salmonella enterica subsp. enterica serovar Pullorum ATCC 7913.
For experiment [25], the system named is Bacillus subtilis CMCC 63501.
Experiment [26] concerns Acinetobacter baumannii.
Experiment [27] deals with Salmonella typhimurium ATCC 7731.
Experiment [28] has as its system Escherichia coli 078.
The test system of experiment [29] is Salmonella enterica subsp. enterica serovar Typhimurium ATCC 14028.
In experiment [30] the test system is Listeria monocytogenes CGMCC 1.1075.
The subject of experiment [31] is Bacillus cereus CGMCC 1.932.
In experiment [32] the test system is Staphylococcus aureus IFO 12732.
Experiment [33] deals with Bacillus subtilis IFO 3037.
Experiment [34] deals with Escherichia coli IFO 14237.
The subject of experiment [35] is Salmonella enterica subsp. enterica serovar Typhi CMCC 50071.
Experiment [36] concerns Salmonella enterica subsp. enterica serovar Pullorum C79-13.
In experiment [37] the test system is Salmonella enterica subsp. enterica serovar Typhimurium C77-31.
Experiment [38] relates to Bacillus cereus ATCC 10876.
Experiment [39] has as its system Streptococcus agalactiae ATCC 27956.
The test system of experiment [40] is Escherichia coli ATCC 25922.
Experiment [41] relates to Staphylococcus aureus ATCC 6538.
The subject of experiment [42] is Streptococcus dysgalactiae subsp. dysgalactiae ATCC 27957.
The subject of experiment [43] is Streptococcus equi subsp. zooepidemicus ATCC 43079.

Each structure is given as a SMILES string. Values after ≈ are worked out from the molar mass of the structure shown.

Take `CC(C)C[C@H](NC(=O)[C@H](C)NC(=O)CNC(=O)[C@H](CC(C)C)NC(=O)[C@@H](N)Cc1ccccc1)C(=O)N[C@@H](Cc1c[nH]c2ccccc12)C(=O)N[C@@H](CCCN=C(N)N)C(=O)N[C@H](C(=O)N[C@@H](C)C(=O)N[C@@H](CCCCN)C(=O)N[C@@H](CO)C(=O)N[C@H](C(=O)N[C@@H](Cc1ccccc1)C(N)=O)C(C)C)C(C)C` [FLGALWRVAKSVF]: the MIC in experiment [1] stood at 1.6 µM (≈ 2.39 µg/mL); in experiment [2] it was 6.3 µM (≈ 9.4 µg/mL); in experiment [3], 0.8 µM (≈ 1.19 µg/mL); in experiment [4], 1.6 µM (≈ 2.39 µg/mL); in experiment [5] it was 1.6 µM (≈ 2.39 µg/mL); in [6], 1.6 µM (≈ 2.39 µg/mL). Moreover, the MIC in experiment [7] stood at 0.8 µM (≈ 1.19 µg/mL); in [8], 1.6 µM (≈ 2.39 µg/mL); in experiment [9] it was 6.3 µM (≈ 9.4 µg/mL); in experiment [10] it was 0.4 µM (≈ 0.597 µg/mL).

As for `CC[C@H](C)[C@H](NC(=O)[C@H](CC(C)C)NC(=O)[C@@H]1CCCN1C(=O)[C@H](CC(C)C)NC(=O)[C@@H](N)Cc1ccccc1)C(=O)NCC(=O)NCC(=O)N[C@@H](CC(C)C)C(=O)N[C@@H](CC(C)C)C(=O)N[C@@H](CO)C(=O)N[C@@H](CCCCN)C(=O)N[C@@H](CC(C)C)C(=O)N[C@@H](CC(C)C)C(N)=O` [FLPLIGGLLSKLL], the minimal inhibitory concentration (MIC) in experiment [11] was 2.83 µM (≈ 3.91 µg/mL); in experiment [12] it was 2.83 µM (≈ 3.91 µg/mL); in experiment [13], ≥ 45.2 µM; in [14] it was 45.2 µM (≈ 62.5 µg/mL); in experiment [15], ≥ 45.2 µM.

Regarding `CC(C)[C@H](NC(=O)[C@H](CCCN=C(N)N)NC(=O)[C@H](Cc1c[nH]c2ccccc12)NC(=O)[C@H](CCCN=C(N)N)NC(=O)[C@H](Cc1c[nH]c2ccccc12)NC(=O)[C@H](Cc1c[nH]c2ccccc12)NC(=O)[C@H](Cc1c[nH]c2ccccc12)NC(=O)[C@H](CCCN=C(N)N)NC(=O)[C@H](Cc1c[nH]c2ccccc12)NC(=O)[C@H](CCCN=C(N)N)NC(=O)CN)C(N)=O` [GRWRWWWRWRV], the MIC in [16] turned out to be 2 µM (≈ 3.46 µg/mL); in experiment [17], 4 µM (≈ 6.92 µg/mL); in [18], 1 µM (≈ 1.73 µg/mL); in experiment [19], 2 µM (≈ 3.46 µg/mL); in experiment [20] it was 4 µM (≈ 6.92 µg/mL); in [21], 2 µM (≈ 3.46 µg/mL). For the same compound, the MIC stood at 4 µM (≈ 6.92 µg/mL) in [22]; 2 µM (≈ 3.46 µg/mL) in [23]; 4 µM (≈ 6.92 µg/mL) in [24]; 4 µM (≈ 6.92 µg/mL) in experiment [25]; 1 µM (≈ 1.73 µg/mL) in experiment [26]; 8 µM (≈ 13.8 µg/mL) in experiment [27]. Besides, the minimal inhibitory concentration (MIC) in experiment [28] was 4 µM (≈ 6.92 µg/mL); in [29] it was 8 µM (≈ 13.8 µg/mL); in experiment [30] it was 1 µM (≈ 1.73 µg/mL); in experiment [9], 8 µM (≈ 13.8 µg/mL); in experiment [31] it was 8 µM (≈ 13.8 µg/mL).

Turning to `CC[C@H](C)[C@H](N)C(=O)N[C@H](C(=O)NCC(=O)N[C@@H](CC(C)C)C(=O)N[C@H](C(=O)N[C@@H](CO)C(=O)N[C@@H](CCCCN)C(=O)NCC(=O)N[C@H](C(=O)N[C@H]1CSSC[C@@H](C(=O)N[C@@H](CCCCN)C(=O)N[C@@H](CCCCN)C(=O)N[C@H](C(=O)N[C@@H](CC(C)C)C(=O)N[C@@H](CCCCN)C(=O)N[C@@H](CCC(N)=O)C(N)=O)C(C)C)NC(=O)[C@H](C(C)C)NC(=O)[C@H]([C@@H](C)O)NC(=O)[C@H](CCCCN)NC(=O)[C@H](C(C)C)NC(=O)[C@H](CC(C)C)NC(=O)[C@H](C(C)C)NC1=O)[C@@H](C)O)C(C)C)[C@@H](C)CC` [IIGLVSKGTCVLVKTVCKKVLKQ], the MIC was 25 µM (≈ 61.4 µg/mL) in experiment [32], ≥ 50 µM in experiment [33] and 25 µM (≈ 61.4 µg/mL) in [34].

`NCCCC[C@H](NC(=O)[C@H](Cc1c[nH]c2ccccc12)NC(=O)[C@H](CCCN=C(N)N)NC(=O)[C@H](CCCN=C(N)N)NC(=O)[C@H](Cc1c[nH]c2ccccc12)NC(=O)[C@H](CCC(N)=O)NC(=O)[C@H](Cc1c[nH]c2ccccc12)NC(=O)[C@H](CCCN=C(N)N)NC(=O)[C@H](CCCN=C(N)N)NC(=O)[C@H](Cc1c[nH]c2ccccc12)NC(=O)[C@@H](N)CCCCN)C(N)=O` [KWRRWQWRRWK]: the MIC is ≥ 128 µM in [35]; 16 µM (≈ 28.3 µg/mL) in [36]; 32 µM (≈ 56.7 µg/mL) in experiment [20]; 8 µM (≈ 14.2 µg/mL) in [21]; 8 µM (≈ 14.2 µg/mL) in [23]; 16 µM (≈ 28.3 µg/mL) in [37]. The results for the minimal inhibitory concentration (MIC) in experiment [29] and in experiment [6] were 32 µM (≈ 56.7 µg/mL) and 8 µM (≈ 14.2 µg/mL), respectively.

Consider `CC[C@H](C)[C@H](NC(=O)CNC(=O)[C@H](CCCN=C(N)N)NC(=O)[C@H](CCCCN)NC(=O)[C@H](CO)NC(=O)[C@H](CCCN=C(N)N)NC(=O)[C@H](CCCN=C(N)N)NC(=O)[C@@H](N)C(C)C)C(=O)N[C@@H](CCCCN)C(=O)N[C@H](C(=O)N1CCC[C@H]1C(=O)N[C@@H](CO)C(=O)N[C@@H](Cc1ccccc1)C(=O)N[C@H](C(=O)N[C@@H](CCCCN)C(=O)N[C@@H](CCCCN)C(=O)N[C@H](C(=O)N[C@@H](CC(C)C)C(=O)N[C@@H](CCCCN)C(=O)N[C@@H](CC(=O)O)C(=O)N[C@H](C(=O)N[C@H](C(=O)N[C@@H](CO)C(=O)N[C@@H](CCC(=O)O)C(=O)N[C@@H](CO)C(=O)N[C@H](C(=O)N[C@@H](CO)C(=O)O)[C@@H](C)CC)C(C)C)C(C)C)C(C)C)C(C)C)C(C)C` [VRRSKRGIKVPSFVKKVLKDVVSESIS], for which the minimal inhibitory concentration (MIC) in experiment [16] is > 10.5 µM; in experiment [38] it was 10.5 µM (≈ 32 µg/mL); in experiment [39], 13.2 µM (≈ 40.2 µg/mL); in [29], > 10.5 µM; in experiment [40], 1.64 µM (≈ 5 µg/mL); in experiment [41], > 10.5 µM. Moreover, the MIC was 13.2 µM (≈ 40.2 µg/mL) in experiment [42], > 10.5 µM in [9] and 13.2 µM (≈ 40.2 µg/mL) in experiment [43].
